Results published in patent publication US5281710A, “Dynemicin analogs: synthesis, methods of preparation and use” (The Scripps Research Institute, priority 1992, dated 1994).

Key:
[1] = system: HL-60 promyeocytic leukemia cells; experiment: Sulforhodamine B cytotoxicity, HL-60; type: cell-based; conditions: Homo sapiens, HL-60, HL-60; read-out: IC50
Summary of the method: (§1)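 Target cells, drawn from cancerous lines and normal preparations, are treated with compound and assessed by sulforhodamine B. From this, the concentration killing one-half of the treated cells is calculated as the IC50.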

[2] = system: L-1210 mouse lymphoma cells; experiment: Sulforhodamine B cytotoxicity, L-1210; type: cell-based; conditions: L1210
Description: (§2) In addition to the screening already discussed, several of the before-described compounds and chimeras were screened against several or all of a panel of ten to twenty-five cancerous cell lines as target cells and seven "normal" cell preparations. This screening utilized a sulforhodamine B cytotoxidity assay as discussed below.
(§3) IC50 values; i.e., the concentration of Compound required to kill one-half of the treated cells, were then calculated.

[3] = system: P-388 mouse lymphoma cells; experiment: Sulforhodamine B cytotoxicity, P-388; type: cell-based; conditions: Mus musculus, P388; P-388; read-out: IC50
Description: as §2, §3

[4] = system: UCLA P-3 non-small cell lung carcinoma cells; experiment: Sulforhodamine B cytotoxicity, UCLA-P3; type: cell-based, human; conditions: Homo sapiens, UCLA P-3, non small cell lung P-3; read-out: IC50
Description: as §2, §3
UCLA P-3 Dr. D. Morton, University of California, […]

M-21 melanoma cells = experiment: Inhibition of [3H]thymidine uptake (DNA synthesis) in M-21 cells; type: cell-based, human; conditions: 72 hours incubation
Description: These determinations were made by standard tissue growth procedures using RPMI tissue culture medium supplemented with 10 percent fetal bovine serum plated at 10^4 cells in 100 μl of medium in 96-well tissue culture plates. The cells were permitted to adhere for 24 hours, and the dilutions of Compound 153 were added in 10 μl volumes and incubated for 72 hours at 37° C. in a humidified atmosphere containing five percent CO2. The plates were then washed three times with tissue culture medium and again incubated for 24 hours, as above. Each well received 1 μCi of ^3 H-labeled substrate, and after an additional 16 hours of incubation, cells were collected on glass fiber filters with a Skatron cell harvester. Finally, the filters were placed in Ecolume scintillation cocktail (ICN, Irvine, Calif.), and radioactivity was measured with a Beckeman scintillation counter. Incorporation of the ^3 H label was calculated as a percentage of untreated controls.

[5] = system: HT-29 colon carcinoma cells; experiment: Sulforhodamine B cytotoxicity, HT-29; type: cell-based; conditions: Homo sapiens, HT-29, colon carcinoma H-29 (Table 4) / HT-29 (Table 5); read-out: IC50
Description: as §2, §3

[6] = system: Ovcar-3 ovarian carcinoma cells; experiment: Sulforhodamine B cytotoxicity, Ovcar-3; type: cell-based; conditions: Homo sapiens, OVCAR-3, Ovcar-3; read-out: IC50
Description: as §2, §3

[7] = system: Ovcar-4 ovarian carcinoma cells; experiment: Sulforhodamine B cytotoxicity, Ovcar-4; type: cell-based; conditions: Homo sapiens
Description: as §2, §3

[8] = system: Capan-1 pancreatic carcinoma cells; experiment: Sulforhodamine B cytotoxicity, Capan-1; type: cell-based; conditions: Homo sapiens, CAPAN-1, Capan-1; read-out: IC50
Summary of the method: as §1

Water solubility = type: physicochemical
TCAF cell line = experiment: Cytotoxicity, TCAF; type: cell-based
Description: as §2, §3

With `O=C(OCCS(=O)(=O)c1ccccc1)N1c2ccc(OCCO)cc2C23OC24CCCC3C#C/C=C\C#CC14` (centres unmarked) [Compound 153] the IC50 [1] was 0.036 nM, the IC50 [2] was 1.3 nM and the IC50 [3] was 4.6 nM. For the same compound, the IC50 [4] was 98 nM, the “inhibition of [3H]thymidine uptake (DNA synthesis)” value (M-21 melanoma cells) was “severely impair the ability of M-21 melanoma cells to synthesize DNA” and the IC50 [5] was 1600 nM. The IC50 [6] was 780 nM, the IC50 [7] was 780 nM and the IC50 [8] was 3.9 nM. For the same compound, the water solubility (Water solubility) was “increased solubility of Compound 153 in water compared to the other enediyne compounds” and the IC50 (TCAF cell line) was 1.1 nM.
